Results from patent publication US10420786B2, “Compositions for use in cardioplegia comprising esmolol and adenosine” (AOP ORPHAN IP AG, priority 2009, dated 2019).
Where two headings read alike, the source gives them in different places.

Legend:
[1] = pH 7.0; cited from earlier work
[2] = cited from earlier work
[3] = test system: Langendorff perfused rat heart; assay: Reversibility of esmolol: treatment for 10 minutes then washout without ischaemia
Experimental: All the following experiments performed in a Langendorff perfused rat heart.
The first study is to determine the reversibility of esmolol at different concentrations after treatment with esmolol for 10 minutes then washout without ischaemia and LVDP was measured 9 minutes after starting the treatment and 3 minutes and 15 minutes after washing out the drug. The following doses were studied 0.03, 0.1, 0.3, 1, 3 mM. (n=5 each group)
It is therefore decided that esmolol concentration between 0.3 and 1 mM offers reasonable arresting effect with good reversibility profile.

[4] = test system: Langendorff perfused rat hearts; conditions: cited from earlier work
heart = assay: Arrest by esmolol on its own (applicant's finding); conditions: esmolol 0.75 mmol/L on its own

Row | SMILES | partition coefficient (octanol/water) [1] | solubility in alcohol [2] | solubility in water [2] | reversibility (LVDP recovery) profile after washout ([3]; 0.3 mM compared with 1 mM esmolol) | esmolol concentration required to induce arrest ([3]; esmolol alone, doses 0.03, 0.1, 0.3, 1, 3 mM) [mM] | reversibility of arrest ([4]; esmolol 0.75 mmol/L) | reversibility of arrest ([4]; esmolol 1.5 mmol/L) | esmolol concentration that can cause cardiac arrest ([4]; in-vitro studies) | induction of effective arrest (heart)
1 | CC(C)NCC(O)COc1cccc2ccccc12 (stereo not drawn) [propranolol] | 17.0 |  |  |  |  |  |  |  | 
2 | COC(=O)CCc1ccc(OCC(O)CNC(C)C)cc1.Cl (racemic) [Esmolol, (±)-Methyl p-[2-hydroxy-3-(isopropylamino)propoxy] hydrocinnamate hydrochloride] | 0.42 | freely soluble | very soluble | better reversibility (LVDP recovery) profile | 1 | easily reversible | slowly reversible with poor recovery | higher than 1 mmol/L | not sufficient to induce effective arrest
3 | Nc1ncnc2c1ncn2[C@@H]1O[C@H](CO)[C@@H](O)[C@H]1O [Adenosine, (2R,3R,4S,5R)-2-(6-amino-9H-purin-9-yl)-5-(hydroxymethyl)oxolane-3,4-diol] |  | practically insoluble | soluble |  |  |  |  |  | 
